Experimental data published in patent publication US20150011559A1, “ANTIMICROBIAL AGENTS” (RUTGERS, THE STATE UNIVERSITY OF NEW JERSEY, priority 2012, published 2015).
Values after ≈ are worked out from the molar mass of the structure shown.

Key:
[1] = tested on: methicillin-susceptible Staphylococcus aureus (MSSA); assay: Antibacterial assay (Test C), broth microdilution MIC against MSSA; type: cell-based; conditions: minimal inhibitory concentration, broth microdilution, growth completely inhibited; for MIC: Staphylococcus aureus, MSSA, read-out: MSSA MIC data
Procedure: (§1) Test C. Antibacterial Assay.
(§2) Antibacterial activity can be determined as per Clinical and Laboratory Standards Institute (CLSI) guidelines using a broth microdilution assay in which log-phase bacteria are grown at 37° C. in appropriate medium containing two-fold serial dilutions of a compound to yield final concentrations ranging from 256 to 0.06 μg/mL. For determination of minimal inhibitory concentration (MIC) values, bacterial growth is monitored after 24 to 48 hours by measuring optical density at 600 nm.
(§3) Using a procedure similar to Test C, representative compounds of the invention were tested against methicillin-susceptible Staphylococcus aureus (MSSA) and methicillin-resistant Staphylococcus aureus (MRSA).

[2] = tested on: methicillin-resistant Staphylococcus aureus (MRSA); assay: Antibacterial assay (Test C), broth microdilution MIC against MRSA; type: cell-based; conditions: minimal inhibitory concentration, broth microdilution, growth completely inhibited; for MIC: Staphylococcus aureus, MRSA, read-out: MRSA MIC data
Procedure: as §1, §2, §3

Row | Structure (SMILES) | MIC [1] [µg/mL] | MIC [2] [µg/mL] | further results
1 | C[N+](C)(C)c1ccc(-c2ccc(-c3ccccc3)cc2)cc1.[I-] [Code 1] | 8 | 64 | –
2 | CC(C)(C)c1ccc(-c2cccc(CNC(=N)N)c2)cc1 [Code 3] | – | – | MSSA MIC data ([1]; listed as 2): >64.0 µg/mL
3 | CC(C)(C)c1ccc(-c2cccc(CNC(=N)N)c2)cc1 [Code 4] | – | 1 (≈ 3.55 µM) | MSSA MIC data ([1]; listed as 3): 1.0 µg/mL
4 | CC(C)(C)c1ccc(-c2ccnc(CN=C(N)N)c2)cc1 [Code 5] | 8 (≈ 28.3 µM) | 16 (≈ 56.7 µM) | –
5 | CC(C)(C)c1ccc(-c2ccc3sc(CNC(=N)N)nc3c2)cc1 [Code 6] | 4 (≈ 11.8 µM) | 8 (≈ 23.6 µM) | –
6 | CC(C)(C)OC(=O)NC(=N)NCc1nc(-c2ccc(C(C)(C)C)cc2)cs1 [Code 9] | 8 (≈ 20.6 µM) | – | –
7 | CC(C)(C)c1ccc(-c2csc(CNC(=N)N)n2)cc1 [Code 10] | 4 (≈ 13.9 µM) | 32 (≈ 111 µM) | –
8 | CC(C)(C)c1ccc(-c2ncc(CNC(=N)N)s2)cc1 [Code 11] | 8 (≈ 27.7 µM) | 32 (≈ 111 µM) | –
9 | CC(C)(C)c1ccc(-c2cccc(/C=N/NC(=N)N)c2)cc1 [Code 12] | 2 (≈ 6.79 µM) | 8 (≈ 27.2 µM) | –
10 | CC(NC(=N)N)c1cccc(-c2ccc(C(C)(C)C)cc2)c1 (stereo not shown) [Code 13] | 1 (≈ 3.38 µM) | 2 (≈ 6.77 µM) | –
11 | COc1cc(-c2ccc(C(C)(C)C)cc2)cc(CNC(=N)N)c1OC [Code 14] | 2 (≈ 5.86 µM) | 8 (≈ 23.4 µM) | –
12 | CC(C)(C)c1ccc(-c2cccc(OCCn3ccnc3)c2)cc1 [Code 15] | 4 (≈ 12.5 µM) | 4 (≈ 12.5 µM) | –
13 | COc1cc(-c2ccc(C(C)(C)C)cc2)cc(Cn2ccnc2)c1OC [Code 16] | 2 (≈ 5.71 µM) | 2 (≈ 5.71 µM) | –
14 | COCCOCCOCCOCCOc1cc(CNC(=N)N)cc(-c2ccc(C(C)(C)C)cc2)c1 [Code 17] | 2 (≈ 4.1 µM) | 4 (≈ 8.2 µM) | –
15 | CC(C)(C)c1ccc(-c2ccc(CNC(=N)N)cc2)cc1 [Code 18] | 4 (≈ 14.2 µM) | – | MRSA MIC data ([2]; listed as 16): 16 µg/mL
16 | CC(C)(C)c1ccc(-c2ccc(CCN)cc2)cc1 [Code 19] | 4 (≈ 15.8 µM) | – | MRSA MIC data ([2]; listed as 17): 4.0 µg/mL
17 | CC(C)(C)c1ccc(-c2ccc(CNC(=N)N)cc2)cc1 [Code 20] | – | – | MSSA MIC data ([1]; listed as 18): 2.0 µg/mL; MRSA MIC data ([2]; listed as 18): 4.0 µg/mL
18 | CC(C)(C)c1ccc(-c2ccc(CCN)cc2)cc1 [Code 21] | – | – | MSSA MIC data ([1]; listed as 19): 8.0 µg/mL; MRSA MIC data ([2]; listed as 19): 16 µg/mL
19 | CN(C)Cc1ccc(-c2ccc(C(C)(C)C)cc2)cc1 [Code 22] | 16 (≈ 59.8 µM) | 32 (≈ 120 µM) | –
20 | CN(C)Cc1ccc(-c2ccc(C(C)(C)C)cc2)cc1CN=C(N)N [Code 23] | 4 (≈ 11.8 µM) | 8 (≈ 23.6 µM) | –
21 | CC(C)(C)c1cccc(-c2cccc(CNC(=N)N)c2)c1 [Code 24] | 2 (≈ 7.11 µM) | 8 (≈ 28.4 µM) | –
22 | CC(C)(C)c1csc(-c2ccc(CN=C(N)N)cc2)n1 [Code 25] | 4 (≈ 13.9 µM) | 8 (≈ 27.7 µM) | –
23 | CC(C)(C)c1csc(-c2cccc(CN=C(N)N)c2)n1 [Code 26] | 4 (≈ 13.9 µM) | 16 (≈ 55.5 µM) | –
24 | CC(C)(C)c1csc(-c2ccc(CN=C(N)N)cc2)n1 [Code 28] | – | – | MRSA MIC data ([2]; listed as 25): 8 µg/mL
25 | CC(C)(C)c1ccc(-c2cccc(C(=O)NC(=N)N)c2)cc1 [Code 29] | 4 (≈ 13.5 µM) | 8 (≈ 27.1 µM) | –
26 | N=C(N)N/N=C/c1cccc(-c2ccc(Br)cc2)c1 [Code 30] | – | – | MSSA MIC data ([1]; listed as 27): 32 µg/mL
27 | CC(C)(C)c1ccc(-c2cccc(CNNC(=N)N)c2)cc1 [Code 31] | 2 (≈ 6.75 µM) | 4 (≈ 13.5 µM) | –
28 | N=C(N)N/N=C/c1cccc(-c2ccc(Br)cc2)c1 [Code 35] | – | 4 (≈ 12.6 µM) | MSSA MIC data ([1]; listed as 30): 4.0 µg/mL
29 | C[N+](C)(C)c1cccc(-c2cccc(-c3cccc(-c4ccccc4)c3)c2)c1 [Code 36] | 1 | 4 | –
30 | CC(C)(C)c1ccc(-c2ccccc2CCN)cc1 [Code 37] | 32 (≈ 126 µM) | – | –
